The text below walks through data of patent US20250058082A1, “TRANSPERINEAL, TRANSRECTAL OR TRANSURETHRAL ADMINISTRATION OF ANTI-PROSTATE CANCER AGENTS FOR TREATING PROSTATE CANCER” (JESSENIUS FACULTY OF MEDICINE OF COMENIUS UNIVERSITY IN …, priority 2021, published 2025).

Data set [1] has as its system canine prostate. The note with it: for lesion volume: 1 cm porous segment, 2 h after injection.
Procedure: Intraprostatic ethanol injections were performed in eight Beagle dogs for acute experiments. Animals received premedication with medetomidin (0.004 mg/kg), metadon (0.3 mg/kg), and acepromazil (0.02 mg/kg). Anesthesia was induced with propofol (1.5-2 mg/kg) and maintained by propofol (10 mg/kg/hour) and fentanyl (0.24 mg/kg/hour). Prostate exposure was performed using lower midline abdominal incisions and blunt dissection of surrounding tissues. The porous needle was stabilized with a fixation apparatus attached to the operating table and was deployed with a protective sheath in the lateral lobe of the prostate. […] Where possible, the distal end of the sheath was kept at least 2 mm from the pseudocapsule. […] Injections in both lateral lobes of each canine were performed. […] In the remaining experiments, 0.5, 1, 1.5, or 2 ml was injected into each prostatic lobe. In five experiments, a needle with a 1 cm long microporous segment was used, while a 2 cm long segment was used in one experiment. The tissue resistance during injections was measured by including the pressure transduced between the pump and the needle. Two hours following the second injection, the animals were anaesthetised by an intramuscular injection of medetomidine and ketamine, followed by intravenous injection of pentobarbital, and euthanized using exsanguination.
Histology slides were converted to digital images.
In data set [2] the test system is canine prostate. As to the kind of experiment: Chronic canine experiment: intraprostatic EtOH injection, four weeks observation, autopsy and histology.
A further data set relates to human prostate. The experiment in a line: Transperineal intraprostatic EtOH injection in heart-beating cadaveric organ donors. To be noted: for average volume of the lesion: five human prostates, 1 cm porous segment.

Where “and” joins values, the source holds several entries; their conditions need not be identical. Equal entries are not always repeated. Where two headings read alike, the source gives them in different places.

Turning to `CCO` [EtOH, ethanol], the lesion volume in the data set with canine prostate [1] (0.5 ml EtOH injected per lobe) is 208±58 mm^3; in the data set with canine prostate [1] (1.0 ml EtOH injected per lobe), 588±112 mm^3; in the data set on canine prostate [1] (1.5 ml EtOH injected per lobe) it was 791±338 mm^3; in the data set on canine prostate [1] (2.0 ml EtOH injected per lobe), 1158±200 mm^3. Moreover, the “tissue infiltration with 2 cm porous segment needle” value in the data set with canine prostate [1] (2 cm porous segment compared with 1 cm) is “larger areas of tissue infiltration”. Moreover, the “necrotic areas, share of the section” value with canine prostate [1] (canine prostate section, FIG. 4) was “more than 80%”. In addition, the “extraprostatic leak during injection” value with canine prostate [1] (dog, in vivo) was “No extraprostatic leak”; in the data set with canine prostate [2] (chronic study), “free of exptraprostatic leak”. The prostatic pseudocapsule integrity entry with canine prostate [1] (dog, in vivo) is on record as “remained intact without evidence of disruption”. Also, the “transient increase in body temperature” value in the data set with canine prostate [2] (animals with wound swelling, lasted less than 24 hours) was 38.5 °C and 39 °C. In the data set on canine prostate [2] (chronic study), the immediate complications result is reported as “No immediate complications occurred”. Moreover, the long-term complications result in the data set on canine prostate [2] (chronic study, four weeks observation) is “swelling of the wound in two animals and serous exudation in one animal”. The “damage to adjacent structures at prostatectomy” value in the data set with canine prostate [2] (four weeks after injection) is reported as “no damage to adjacent structures”. The “tissue defects on whole mount sections” value with canine prostate [2] (four weeks after injection, H&E) is “tissue defects (cavities) in all prostatic lobes injected with 1, 1.5, and 2 ml”. In the data set with canine prostate [2] (four weeks after injection, histology), the prostatic pseudocapsule area result was “showed no abnormalities”. Moreover, the “average volume of the lesion” value turned out to be 0.978 mL in the data set with human prostate (2 ml injected per lobe) and 1.742 mL in the data set with human prostate (3 ml injected per lobe). In addition, in the data set on human prostate (average, human prostates), the “lesion size with 3 ml relative to 2 ml” value was 1.78 ×. Also, the extraprostatic tissue injury entry in the data set with human prostate (human prostates) is given as “no evidence to the extraprostatic tissue injury was observed”. Besides, the lesion localization result with human prostate (human prostates) is on record as “In all cases the lesion was localized within the prostate”. Further, the prostatic capsule integrity entry in the data set on human prostate (human prostates) is “remained intact”.
